# Experimental data as given in PMC5684418, “Structural remodeling and oligomerization of human cathelicidin on membranes suggest fibril-like structures as active species” (Scientific Reports, 2017).
# Ends that are not written are not given here.
# Key:
# [1] = Cryo-EM of small unilamellar lipid vesicles incubated with gold-labelled peptide; conditions: DOPC:DOPG (3:7) SUVs, peptide:lipid 1:250, 15 minutes
# Description: For the labeling of LL-37 with 1.4 nm nanogold particles (Nanoprobes, Inc), 200 µM of the S37C peptide were reduced using 5 mM of Dithiothreitol (DTT) in the presence of 5 mM EDTA and 100 mM sodium phosphate, pH 7, at room temperature for 1 hour while shaking. The excess of DTT was removed using a 3 kD-cutoff ultrafiltration cell (Amicon, Millipore). Nanogold at 6 nmol concentration was incubated with the peptide at room temperature for 2 hours while shaking. To remove the excess of nanogold, the mixture was loaded onto a Superdex 75 10/300 GL column (GE Healthcare) with 150 mM NaCl and 20 mM sodium phosphate, pH 7. The fractions containing the labeled peptide were concentrated using a 3 kD-cutoff (Amicon, Millipore) ultrafiltration device. The DOPC:DOPG (3:7) SUVs (small unilamellar vesicles) were prepared using a mini-extruder (Avanti Polar Lipids, Inc). Their size and homogeneity was checked using dynamic light scattering (DLS). DOPC:DOPG vesicles were treated with nanogold labeled LL-37 (ratio of peptide to lipid 1:250).
# E. coli K12 cells = test: Cryo-electron microscopy of E. coli incubated with gold-labelled peptide; type: cell-based; conditions: E. coli K12, 18 µM (80 µg/ml) labelled peptide, 37 °C, 80 minutes
# Description: E. coli K12 cells were grown at 37 °C at 200 rpm up to an OD of 0.6, and labeled LL-37 nanogold was added to 1 ml culture to reach a final concentration of 18 µM (80 µg/ml). The cultures were further incubated at 37 °C while shaking at 300 rpm (Eppendorf Thermomixer, Hamburg, Germany). After 80 minutes, 200 μl of the sample were taken and cells were pelleted at 3000*g for 10 min at 4 °C. The cell pellet was resuspended using 15 μl of culture solution in order to concentrate the sample and reach a sufficiently high cell density for the visualization in the microscope.
# [2] = Peptide-lipid overlay assay (lipid strips); type: binding; conditions: 100 pmol lipid spots, LL-37 0.04 mg/ml, 1 h room temperature, anti-LL-37 HRP antibody, qualitative
# Description: The lipid affinity of LL-37 was assessed using peptide-lipid overlay assays of commercially available lipid strips blotted with 100 pmol of biologically relevant lipids (Echelon Biosciences, Salt Lake City, UT), following the manufacturer’s instructions. Lipid strips were blocked with 1% fat-free milk in TBS (150 mM NaCl, 50 mM Tris-HCl, pH 7.6) for 1 h at room temperature and then incubated with LL-37 (0.04 mg/ml) dissolved in 10 mM NaHCO3, 100 mM NaCl, 5 mM sodium phosphate, pH 8, plus 1% fat-free milk in TBS for 1 h at room temperature. The lipid strips were first washed with TBS buffer three times, and then incubated overnight at 4 °C in a solution of TBS containing 1% fat free milk and the anti-LL-37 HRP-labelled antibody (Innovagen, Sweden) in a 1:2000 dilution. After being washed three times with TBS, the peptide was detected by chemoluminescence using the super-signal western femto maximum sensitivity substrate kit (Thermo Scientific, Pierce Biotechnology, Inc).
# [3] = Oligomerization by size exclusion chromatography (SEC); type: physicochemical
# Description: The oligomeric state of the peptide in the absence and presence of detergents was characterized on Superdex75 10/300 GL column (GE Healthcare) at peptide concentrations of 0.7 (0.16 mM) or 3.7 mg/ml (0.83 mM) respectively. The column was equilibrated using buffer A containing 100 mM NaCl, 10 mM NaHCO3, 5 mM sodium phosphate, pH 6.8, for the detergent free sample. SEC in the presence of detergents was performed at 0.7 mg/ml (0.16 mM) of LL-37 in buffer A plus the following detergent concentrations: 0.2% LDAO (8.7 mM), 0.05% DDM (0.98 mM), 0.2% DPC (5.6 mM). Peptides were incubated with buffer A and buffer-detergent solutions for 30 minutes before 200 μl samples were loaded onto the column. The flow rate of the column was adjusted to 0.5 ml/min and all runs were performed at room temperature. The peptide retention time was monitored at 215 nm due to the absence of Trp and Tyr residues.
# [4] = Analytical ultracentrifugation (AUC), equilibrium sedimentation; type: physicochemical; conditions: 0.33 mg/ml (0.07 mM) in 50 mM phosphate buffer pH 7.2, 0.04% DDM, 18.000 rpm, 20°C, 230 nm; data not shown
# Text: Supplementa ry mat eria l to the paper:
# Structural remodeling and oligomerization of human cathelicidin on membranes […]
# by Enea Sancho-V aello, Patrice François, Eve-Julie Bonetti, Hauke Lilie, Sebastian Finger, Fernando Gil-Ortiz, Davi d Gil -Carton, Kornelius Zeth
# Peptides, lipids and detergents
# All peptides used in our study were chemically synthesized and purchased from Peptide2.0(www.peptide20.com), Proteogenix (www.ProteoGenix.fr) or Genecust (www. gen ecust.com) at purities of higher than 95%. Detergents used in this study are N - o c t yl -β-D-glucoside(Apollo Scientific limited), N-D o d e c yl -β-D-maltoside (Apollo Scientific limited), N-dodecylphosphocholine(Affymetrix) and N-dodec yl-N,N-dimethylamine-N-ox ide(Aff ymetrix ). The lipids 1,2- dioleoyl-sn-gl yc e r o -3- phosphocholine (DOPC), 1,2- dioleoyl-s n gl yc e r o -3- phosphoglycerol(DOPG) and cardiolipin (CL) were purchased from Avanti P olarLipids, Inc. (Alab aster, A L, USA). […]
# Centrifugationruns were performed at 18.000 rpm and 20°C; data were collected at a wavelength of 230 nmusi ng a concentration of 0.33 mg/ml (0.07 mM) in 50 mM phosphate buffer, pH 7.2. […] The radial distribution of LL-37 at sedimentation equilibrium in the respective bufferwas linearized according to the Lamm equation 1and the slope dlnc/dr2 with c representingthe peptide concentration at the radial position r was determined experimentally. […]
compound,measurement,setting,value
"gold-labelled LL-37: S37C mutant of LL-37 labeled at the C-terminus with 1.4 nm nanogold particles (LLGDFFRKSKEKIGKEFKRIVQRIKDFLRNLVPRTEC; also: labeled at the C-terminus with 1.4 nm nanogold particles, attachment not given here; UniProt P49913 134-170, looked up, variant S37C)",Membrane perturbation of lipid vesicles (cryo-EM),[1],no significant membrane perturbation
same,Effect on E. coli membranes (cryo-EM),E. coli K12 cells,clear perforation of the outer but not of the inner membrane
CC[C@H](C)[C@H](NC(=O)[C@H](CCCCN)NC(=O)[C@H](CCC(=O)O)NC(=O)[C@H](CCCCN)NC(=O)[C@H](CO)NC(=O)[C@H](CCCCN)NC(=O)[C@H](CCCNC(=N)N)NC(=O)[C@H](Cc1ccccc1)NC(=O)[C@H](Cc1ccccc1)NC(=O)[C@H](CC(=O)O)NC(=O)CNC(=O)[C@H](CC(C)C)NC(=O)[C@@H](N)CC(C)C)C(=O)NCC(=O)N[C@@H](CCCCN)C(=O)N[C@@H](CCC(=O)O)C(=O)N[C@@H](Cc1ccccc1)C(=O)N[C@@H](CCCCN)C(=O)N[C@@H](CCCNC(=N)N)C(=O)N[C@H](C(=O)N[C@H](C(=O)N[C@@H](CCC(N)=O)C(=O)N[C@@H](CCCNC(=N)N)C(=O)N[C@H](C(=O)N[C@@H](CCCCN)C(=O)N[C@@H](CC(=O)O)C(=O)N[C@@H](Cc1ccccc1)C(=O)N[C@@H](CC(C)C)C(=O)N[C@@H](CCCNC(=N)N)C(=O)N[C@@H](CC(N)=O)C(=O)N[C@@H](CC(C)C)C(=O)N[C@H](C(=O)N1CCC[C@H]1C(=O)N[C@@H](CCCNC(=N)N)C(=O)N[C@H](C(=O)N[C@@H](CCC(=O)O)C(=O)N[C@@H](CO)C(=O)O)[C@@H](C)O)C(C)C)[C@@H](C)CC)C(C)C)[C@@H](C)CC [LL-37],Interaction with PS (lipid overlay),[2]; chemoluminescence,strong interactions
same,Binding to PC (lipid overlay),[2],does not bind
same,Interaction with CL (lipid overlay),[2],strong interactions
same,Interaction with PE (lipid overlay),[2],strong interactions
same,Interaction with PG (lipid overlay),[2],strong interactions
same,Interaction with PI (lipid overlay),[2],do not interact
same,Interaction with PI-4 (lipid overlay),[2],do not interact
same,"Interaction with PI-4,5 (lipid overlay)",[2],do not interact
same,Interaction with phosphatidic-acid (lipid overlay),[2],strong interactions
same,Interaction with sulfatide (lipid overlay),[2],strong interaction
same,"Recognition of PI-3, 4, 5 (lipid overlay)",[2],recognized
same,"Oligomeric state in SEC, dominating species","[3]; 0.16 mM (0.7 mg/ml) peptide, no detergent, Superdex75 10/300 GL, 100 mM NaCl, 10 mM NaHCO3, 5 mM sodium phosphate pH 6.8, room temperature, 215 nm",monomeric
same,Oligomeric state in SEC in the presence of detergents,"[3]; 0.16 mM peptide with 0.2% LDAO, 0.2% DPC or 0.05% DDM, 30 min pre-incubation, buffer pH 6.8, room temperature",tetramers or hexamers
same,Oligomeric state in SEC (retention time range),"[3]; 0.83 mM (3.7 mg/ml) peptide, no detergent, Superdex75 10/300 GL, buffer pH 6.8, room temperature, 215 nm",tetramer or hexamer
same,Molecular weight in SEC in the presence of detergents,"[3]; in the presence of DDM, DPC and LDAO",around 30 kD
same,Molecular weight by AUC in DDM,[4],~ 28 kD
LLGDFFRKSKEKIGKEFKRIVQRIKDF [LL-28],MIC against E. coli in the presence of detergent,E. coli,6 µg/mL
